This series is described as follows: physchem. An excerpt: LogP is the partition coefficient of a molecule between aqueous and lipophilic phases, usually considered as octanol and water. As referred to herein, the LogP of specific terpenes can be determined using the “slow-stirring” method, wherein water, 1-octanol and the test substance are equilibrated in a thermostated stirred reactor. Exchange between the phases is accelerated by stirring. The stirring introduces limited turbulence which enhances the exchange between 1-octanol and water without microdroplets being formed. A suitable “slow-stirring” method is: Test No. 123: Partition Coefficient (1-Octanol/Water): Slow-Stirring Method, 30 Jun. 2022, OECD Guidelines for the Testing of Chemicals.

Each structure is given as a SMILES string.

In general, logP refers to the decadic logarithm of the partition coefficient of the neutral form, usually between octanol and water. As for `CC(C)=CCCC(C)CCO` (stereo not drawn) [Beta-citronellol], for the setting “LogP”, the lipophilicity (logP) worked out at 3.56.

Under “octanol/water”, `C=C(C)[C@H]1CC=C(C)CC1` [Limonene] registered a logP of 4.4.

Turning to `C=CC(C)(CCC=C(C)C)OC(C)=O` (stereo not shown) [Linalyl acetate], the logP came to 3.92.

With `C=C1CC/C=C(\C)CC[C@@H]2[C@@H]1CC2(C)C` [beta-caryophyllene], the log partition coefficient (logP) (LogP) is greater than 6.4.
